Reference: patent publication US8859021B2, “Skin appearance through gene manipulation” (Sytheon, priority 2007, dated 2014)

System: EpiDerm tissues
Details: retinol 10 μg/ml, Sytenol A 5 μg/ml, 2 days, vs 0.1% DMSO control

CC1=C(/C=C/C(C)=C/C=C/C(C)=C/CO)C(C)(C)CCC1 [Retinol, retinol]
Fold Change, ACTN1 Alpha-actinin-1 (Alpha-actinin cytoskeletal isoform) (Table 8): +3.11 fold | Fold Change, ACTN1 Alpha-actinin-1 (Alpha-actinin cytoskeletal isoform) (Table 9): +3.11 fold | Fold Change, ACTN4 Alpha-actinin-4(F-actin cross-linking protein) (Table 8): +2.99 fold | Fold Change, ACTN4 Alpha-actinin-4(F-actin cross-linking protein) (Table 9): +2.99 fold | Fold Change, AFAP1L2 Actin filament-associated protein 1-like 2: +2.84 fold | Fold Change, C16orf30 Claudin-like protein 24: −2.23 fold | Fold Change, CDH1 Epithelia-cadherin precursor (E-cadherin) (Table 7): +9.39 fold | Fold Change, CDH1 Epithelial-cadherin precursor (E-cadherin) E-Cad/CTF1 (Table 9): +9.39 fold | Fold Change, CDH3 Cadherin-3-precursor (P-cadherin): +3.99 fold | Fold Change, CDH19 Cadherin-19-precursor: −4.11 fold | Fold Change, CDH24 Cadherin-24-precursor: +2.06 fold | Fold Change, CDK5R1 Tau protein kinase II 23 kDa subunit (Cyclin-dependent kinase 5 activator 1 precursor (CDK5 activator 1)): +2.17 fold | Fold Change, CLDN4 Claudin-4 (Clostridium perfringens enterotoxin receptor) (CPE-R): +3.63 fold | Fold Change, CLDN5 Claudin-5 (Transmembrane protein deleted in VCFS): −3.66 fold | Fold Change, CLDN6 Claudin-6 (Skullin 2): +2.59 fold | Fold Change, CLDN7 Claudin-7 (CLDN-7): +25.30 fold | Fold Change, CLDN11 Claudin-11 (Oligodendrocyte-specific protein): −2.86 fold | Fold Change, CLDN12 Claudin-12: +3.73 fold | Fold Change, CLDN16 Claudin-16 (Paracellin-1) (PCLN-1): +7.79 fold | Fold Change, COL1A2 Collagen alpha-2 (I) chain precursor (Alpa-2 type I collagen): +3.31 fold | Fold Change, COL3A1 Collagen alpha-1 (III) chain precursor: −2.36 fold | Fold Change, COL4A6 Collagen alpha-6 (IV) chain precursor: +6.41 fold | Fold Change, COL9A2 Collagen alpha-2 (IX) chain precursor: +5.56 fold | Fold Change, COL9A3 Collagen alpha-3 (IX) chain precursor: +4.05 fold | Fold Change, COL17A1 Collagen alpha-1 (XVII) chain precursor: +3.5 fold | Fold Change, CRABP1 Cellular retinoic acid-binding protein 1: +2.83 fold | Fold Change, CTHRC1 Collagen triple helix repeat-containing protein 1 precursor: −18.94 fold | Fold Change, CTNNAL1 Alpha-catenin-related protein (ACRP) (Table 8): −2.60 fold | Fold Change, CTNNAL1 Alpha-catenin-related protein (ACRP) (Table 9): −2.04 fold | Fold Change, CYP26B1 Cytochrome P450 26B1 (Retinoic acid-metabolizing cytochrome): +1.87 fold | Fold Change, Connective tissue growth factor precursor (Hypertrophic chondrocyte-specific protein 24): −4.61 fold | Fold Change, DHRS9 NADP-dependent retinol dehydrogenase/reductase: +5.48 fold | Fold Change, DSC1 Desmocollin-1-precursor (DG2/DG3): −7.49 fold | Fold Change, DSC2 Desmocollin-2-precursor (Desmocollin-3): +3.71 fold | Fold Change, DSG1 Desmoglein-1-precursor (DG1): −2.30 fold | Fold Change, DSG2 Desmoglein-2-precursor: +13.03 fold | Fold Change, DSG3 Desmoglein-3-precursor: +2.35 fold | Fold Change, DSG4 Desmoglein-4-precursor: No effect | Fold Change, ECM1 Extracellular matrix protein 1 precursor: No effect | Fold Change, ECM2 Extracellular matrix protein 2 precursor: +4.98 fold | Fold Change, ELA3B Elastase-3B precursor (Elastase IIIB): +5.89 fold | Fold Change, F11R Junctional adhesion molecule 1 (JAM-1): +5.77 fold | Fold Change, FLNB Actin-binding-like protein: +3.89 fold | Fold Change, FLRT2 Fibronectin-like-domain-containing leucine-rich transmembrane protein 2: −2.67 fold | Fold Change, FLRT3 Fibronectin-like-domain-containing leucine-rich transmembrane protein 3: +2.77 fold | Fold Change, FNDC7 Fibronectin type III domain containing 7: No effect | Fold Change, Fibroblast growth factor 9 (HBGF-9): −12.36 fold | Fold Change, Fibroblast growth factor 23 precursor (FGF-23) (Tumor-derived hypophosphatemia-inducing factor): −9.78 fold | Fold Change, Fibroblast growth factor receptor 2 precursor (FGFR-2): +6.50 fold | Fold Change, Fibroblast growth factor-binding protein 1 precursor (FGF-BP1): +3.51 fold | Fold Change, GSN Gelsolin precursor (Actin-depolymerizing factor) (ADF): +3.47 fold | Fold Change, HAS2 Hyaluronan synthase 2: −3.48 fold | Fold Change, HAS3 Hyaluronan synthase 3: +10.88 fold | Fold Change, HS3ST1 Heparan sulfate 3-O-sulfotransferase 1 (Table 6): +8.65 fold | Fold Change, HS3ST1 Heparan sulfate glucosamine 3-O-sulfotransferase 1 precursor (Heparan sulfate 3-O-sulfotransferase 1) (Table 3): +8.65 fold | Fold Change, HS6ST1 Heparan sulfate 6-O-sulfotransferase 1: +2.26 fold | Fold Change, HYAL1 Hyaluronidase-1-precursor: +2.16 fold | Fold Change, Heparin-binding EGF-like growth factor precursor (HB-EGF): +3.89 fold | Fold Change, IGSF1 Immunoglobulin superfamily, member 1 isoform 1: +3.11 fold | Fold Change, IGSF3 Immunoglobulin superfamily, member 3 isoform 2: +5.81 fold | Fold Change, ITG5 Integrin beta-5 precursor (Table 7): −2.42 fold | Fold Change, ITGA6 Integrin alpha-6 precursor: No effect | Fold Change, ITGA7 Integrin alpha-7 precursor: −5.53 fold | Fold Change, ITGB2 Integrin beta-2-precursor: −3.54 fold | Fold Change, ITGB4 Integrin beta-4-precursor (Table 3): +3.48 fold | Fold Change, ITGB4 Integrin beta-4 precursor (Table 7): +3.48 fold | Fold Change, ITGB5 Integrin beta-5 precursor (Table 3): −2.42 fold | Fold Change, ITGB6 Integrin beta-6-precursor (Table 3): +7.49 fold | Fold Change, ITGB6 Integrin beta-6-precursor (Table 7): +7.49 fold | Fold Change, ITGB8 Integrin beta-8 precursor (Table 3): No effect | Fold Change, ITGB8 Integrin beta-8 precursor (Table 7): No effect | Fold Change, ITGBL1 Integrin beta-like 1: −4.38 fold | Fold Change, Insulin growth factor-like family member 3 precursor (IGBP-3): −7.11 fold | Fold Change, Insulin growth factor-like family member 4 precursor (IGBP-4): +5.97 fold | Fold Change, Insulin-like growth factor-binding protein 6 precursor (IGBP-6): +5.89 fold
